Data on one compound can be found in patent US10935552B2, “Aie luminogens for visualization and treatment of cancer” (THE HONG KONG UNIVERSITY OF SCIENCE AND TECHNOLOGY, priority 2015, dated 2021).

In one data set the test system is mitochondria. Kind of data set: Co-staining with commercial organelle trackers in HeLa cells (mitochondria staining). It is filed as cell-based, human. The following applies: HeLa, 200 nM with Mito-tracker red/Lyso-tracker red/DAPI, 20 mins. Here is the method:
The HeLa cells were grown overnight on a 35 mm petri dish with a cover slip. Then the HeLa cells were stained with 200 nM TPE-IQ-2O and Mito-tracker red (50 nM)/Lyso-tracker red (50 nM)/DAPI (500 nM) for 20 mins.
The DMSO solution of DPA-IQ was almost non-emissive while the aggregation state powder of this material emits strong green luminescence upon the UV excitation.
The commercially available MitoTracker Red FM is co-stained as a control together with Naph-IQ.

The next data set concerns MDA-MB-231 cells. Kind of data set: Cell imaging under fluorescent microscope, MDA-MB-231 cells. Format: cell-based. The following applies: 200 nM. On the procedure:
(§1) Cell culture: HeLa cells were cultured in the MEM containing 10% FBS and 1% antibiotics (100 units/mL penicillin and 100 µg/mL streptomycin) in a 5% CO2 humidity incubator at 37° C. COS-7, MDA-MB-231, MCF-7, and MDCK-II cells were culture in the DMEM containing 10% FBS and antibiotics (100 units/mL penicillin and 100 µg/mL streptomycin) in a 5% CO2 humidity incubator at 37° C.
(§2) Cell imaging: two different kind of cells were grown overnight on a 35 mm petri dish with a cover slip. The live cells were incubated with 200 nM of TPE-IQ-2O for 1, 5, 10, and 20 mins. In a typical experiment, 2 μL of a 10 mM stock solution of TPE-IQ-2O in DMSO was diluted to 2 mL with cell culture medium, followed by further dilution to desired concentration. The cells were imaged under a fluorescent microscope (BX41 Microscope) using the same excitation and emission filters: excitation filter=400-440 nm, dichroic mirror=455 nm, and emission filter=465 nm long pass.
Two different kinds of cells were grown overnight on a 35 mm petri dish with a cover slip. The live cells were incubated with 200 nM of TPE-IQ-2O for 20, 10, 5, and 1 mins. […] Condition: 200 nM (Filter: both close; Channel 5; EX: 400-440 nm; Exposure time: bright field: 1000 ms Fluorescence: 1000 ms.

The next data set deals with LX2 cells. Kind of data set: Cell imaging, LX2 normal cells. It is filed as cell-based, human. To be noted: LX2, 200 nM, 20 and 10 mins. Here is the method:
The LX2 cells were grown overnight on a 35 mm petri dish with a cover slip. The live cells were incubated with 200 nM of TPE-IQ-2O for 20 and 10 mins.
(§3) HepG2 cells (human hepatocarcinoma cell line), PC-9 cells (human lung adenocarcinoma cell line), Hela cells (human cervical carcinoma cell line), and LX2 cells (normal cell, human hepatic stellate cell line) were stained with 200 nM DPA-IQ for 10 min. Images were taken under the same equipment settings. Scale bar: 30 μm. Excitation wavelength: 400-440 nm.

The next data set deals with MCF-7 cells. Kind of data set: Cell imaging under fluorescent microscope, MCF-7 cells. The following applies: 200 nM. Format: cell-based. On the procedure: as §1, §2
Two different kinds of cells were grown overnight on a 35 mm petri dish with a cover slip. The live cells were incubated with 200 nM of TPE-IQ-2O for 20, 10, and 5 mins. […] Condition: 200 nM (Filter: both close; Channel 5; EX: 400-440 nm; Exposure time: bright field: 1000 ms Fluorescence: 1000 ms.

Another data set deals with ROS. Kind of data set: ROS generation under white light with H2DCF-DA indicator. The following applies: white light irradiation; dye 10 mM, H2DCF-DA 5 mM, ex 488 nm. On the procedure:
Fluorescence change of TPE-IQ-2O, H2DCF-DA (ROS indicator) and the mixture with different irradiation time of white light. […] Dye (TPE-IQ-2O): 10 mM; H2DCF-DA: 5 mM. Excitation wavelength: 488 nm.

For another data set, the system named is HCC827 cells. Kind of data set: Cell imaging, HCC827 cells. Format: cell-based. To be noted: HCC827, 200 nM, 20 and 10 mins. On the procedure: (§4) The PC-9, HepG2, and HCC827 cells were grown overnight on a 35 mm petri dish with a cover slip. The live cells were incubated with 200 nM of TPE-IQ-2O for 20 and 10 mins. In all the experiments, the cancer cells are fluorescent in solely staining.

A further data set relates to PC-9 cells. Kind of data set: Cell imaging, PC-9 cells. It is filed as cell-based, human. To be noted: PC-9, 200 nM, 20 and 10 mins. Here is the method: as §4, §3
Another data set relates to HeLa cells. Kind of data set: LDH cytotoxicity assay, HeLa cells. It is filed as cell-based, human. On the procedure:
The HeLa and COS-7 cells were seeded in 96-well plate for 24 hrs. Then a different concentration of TPE-IQ-2O was added into each well. After 30 mins TPE-IQ-2O treatment in the dark, the dye was removed. Half of the cells were treated with white light irradiation for 90 mins and the rest of cells were kept in the dark. After another 24 hrs of incubation, 10 μL of 10× lysis buffer bromide was added to untreated cells as Maximum LDH Activity, while 10 μL ultrapure water was added to other wells. After incubation at 37° C. 5% CO2 for 45 mins, 50 μL of each well sample medium was transferred to a new 96-well plate, followed by addition of 50 μL reaction mixture. 50 μL stop solution were added into each well after 30 mins incubation protected from light. Then the absorbance was achieved by plate reader.

Molecules are shown by their SMILES.

As to `CCC[n+]1cc2ccc(C(=C(c3ccc(OC)cc3)c3ccc(OC)cc3)c3ccccc3)cc2c(-c2ccccc2)c1-c1ccccc1` [TPE-IQ-2O, 6-(2,2-bis(4-methoxyphenyl)-1-phenylvinyl)-3,4-diphenyl-2-propylisoquinolin-2-ium], the Organelle selectivity result in the data set on mitochondria was “can selectively target the mitochondria”. The Fluorescence in co-culture result with MDA-MB-231 cells (MDA-MB-231 and COS-7 co-cultured and stained together) was “fluorescence only from the MDA-MB-231 cancer cell”; in the data set on MCF-7 cells (MCF-7 and COS-7 co-cultured and stained together), “fluorescence only from the MCF-7 cancer cell”. The “Fluorescence of stained cells” value in the data set on MDA-MB-231 cells (MDA-MB-231 stained alone, 1-20 min) is given as “fluorescent”; in the data set with LX2 cells it was “no obvious fluorescence”; with MCF-7 cells (MCF-7 stained alone, 5-20 min) it was “fluorescent”; with HCC827 cells, “fluorescent”; in the data set with PC-9 cells, “fluorescent”. Moreover, the “ROS generation (H2DCF-DA fluorescence)” value in the data set on ROS was “continuous ROS generation”. The LDH cytotoxicity entry is listed as “HeLa cells decreased as the concentration of TPE-IQ-2O increased” in the data set with HeLa cells (white light irradiation for 90 mins) and “no obvious cytotoxicity” in the data set with HeLa cells (without white light irradiation).
